Test results: US9113629B2, “4-amino-6-(4-substituted-phenyl)-picolinates and 6-amino-2-(4-substituted-phenyl)-pyrimidine-4-carboxylates and their use as herbicides” (DOW AGROSCIENCES LLC, priority 2013, dated 2015)
Like-named read-outs stand apart in the source and are kept apart here.

What was measured:
[1] = tested on: Key Broadleaf Weed and Crop Species; experiment: Post-emergent Test II herbicidal activity (Table 5); assay type: in vivo; conditions: post-emergence, 336 h, 14 days after application
Procedure, shortened: (§1)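 Spray rates: a highest rate plus ½×, ¼×, ⅛×, 1/16×, all delivered at 187 L/ha to plants at the first–second true leaf stage. Readout is a visual percent injury score at 14 d, where 100 means complete kill.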

[2] = tested on: Key Grass and Sedge Weeds as well as Grass Crops; experiment: Post-emergent Test II herbicidal activity (Table 6); assay type: in vivo; conditions: post-emergence, 336 h
Procedure, shortened: as §1

COC(=O)c1nc(-c2ccc(C#N)cc2F)cc(N)c1Cl [Compound 16]
95 to 100%: pest or weed control at 140 g/ha ([1]; ABUTH: velvetleaf (Abutilon theophrasti), application rate 140 g ai/ha, read-out: Visual Growth Reduction (%) 14 Days After Application, ABUTH) | pest or weed control at 140 g/ha ([1]; AMARE: redroot pigweed (Amaranthus retroflexus), application rate 140 g ai/ha, read-out: Visual Growth Reduction (%) 14 Days After Application, AMARE) | pest or weed control at 70 g/ha ([1]; CHEAL: lambsquarters (Chenopodium album), application rate 70 g ai/ha, read-out: Visual Growth Reduction (%) 14 Days After Application, CHEAL) | pest or weed control at 140 g/ha ([1]; CHEAL: lambsquarters (Chenopodium album), application rate 140 g ai/ha, read-out: Visual Growth Reduction (%) 14 Days After Application, CHEAL) | pest or weed control at 70 g/ha ([1]; EPHHL: wild poinsettia (Euphorbia heterophylla), application rate 70 g ai/ha, read-out: Visual Growth Reduction (%) 14 Days After Application, EPHHL) | pest or weed control at 140 g/ha ([1]; EPHHL: wild poinsettia (Euphorbia heterophylla), application rate 140 g ai/ha, read-out: Visual Growth Reduction (%) 14 Days After Application, EPHHL) | pest or weed control at 70 g/ha ([1]; HELAN: sunflower (Helianthus annuus), application rate 70 g ai/ha, read-out: Visual Growth Reduction (%) 14 Days After Application, HELAN) | pest or weed control at 140 g/ha ([1]; HELAN: sunflower (Helianthus annuus), application rate 140 g ai/ha, read-out: Visual Growth Reduction (%) 14 Days After Application, HELAN) | pest or weed control at 70 g/ha ([2]; CYPES: yellow nutsedge (Cyperus esculentus), 70 g ai/ha, read-out: Visual Growth Reduction (%) 14 Days After Application, CYPES) | pest or weed control at 140 g/ha ([2]; CYPES: yellow nutsedge (Cyperus esculentus), 140 g ai/ha, read-out: Visual Growth Reduction (%) 14 Days After Application, CYPES) | pest or weed control at 140 g/ha ([2]; ECHCG: barnyardgrass (Echinochloa crus-galli), 140 g ai/ha, read-out: Visual Growth Reduction (%) 14 Days After Application, ECHCG)
85 to 94%: pest or weed control at 70 g/ha ([1]; ABUTH: velvetleaf (Abutilon theophrasti), application rate 70 g ai/ha, read-out: Visual Growth Reduction (%) 14 Days After Application, ABUTH) | pest or weed control at 70 g/ha ([2]; ZEAMX: maize, corn (Zea mays), crop, 70 g ai/ha, read-out: Visual Growth Reduction (%) 14 Days After Application, ZEAMX) | pest or weed control at 140 g/ha ([2]; ZEAMX: maize, corn (Zea mays), crop, 140 g ai/ha, read-out: Visual Growth Reduction (%) 14 Days After Application, ZEAMX)
30 to 44%: pest or weed control at 70 g/ha ([1]; VIOTR: wild pansy (Viola tricolor), application rate 70 g ai/ha, read-out: Visual Growth Reduction (%) 14 Days After Application, VIOTR) | pest or weed control at 140 g/ha ([1]; VIOTR: wild pansy (Viola tricolor), application rate 140 g ai/ha, read-out: Visual Growth Reduction (%) 14 Days After Application, VIOTR) | pest or weed control at 70 g/ha ([2]; TRZSS (wheat, Triticum aestivum), crop, 70 g ai/ha, read-out: Visual Growth Reduction (%) 14 Days After Application, TRZSS)
0 to 29%: pest or weed control at 70 g/ha ([1]; BRSNN: oilseed-rape, canola (Brassica napus), application rate 70 g ai/ha, read-out: Visual Growth Reduction (%) 14 Days After Application, BRSNN) | pest or weed control at 140 g/ha ([1]; BRSNN: oilseed-rape, canola (Brassica napus), application rate 140 g ai/ha, read-out: Visual Growth Reduction (%) 14 Days After Application, BRSNN) | pest or weed control at 70 g/ha ([2]; ORYSA: rice (Oryza sativa), crop, 70 g ai/ha, read-out: Visual Growth Reduction (%) 14 Days After Application, ORYSA) | pest or weed control at 140 g/ha ([2]; ORYSA: rice (Oryza sativa), crop, 140 g ai/ha, read-out: Visual Growth Reduction (%) 14 Days After Application, ORYSA)
75 to 84%: pest or weed control at 140 g/ha ([2]; DIGSA: crabgrass (Digitaria sanguinalis), 140 g ai/ha, read-out: Visual Growth Reduction (%) 14 Days After Application, DIGSA) | pest or weed control at 70 g/ha ([2]; ECHCG: barnyardgrass (Echinochloa crus-galli), 70 g ai/ha, read-out: Visual Growth Reduction (%) 14 Days After Application, ECHCG)
60 to 74%: pest or weed control at 70 g/ha ([2]; DIGSA: crabgrass (Digitaria sanguinalis), 70 g ai/ha, read-out: Visual Growth Reduction (%) 14 Days After Application, DIGSA) | pest or weed control at 140 g/ha ([2]; SETFA: giant foxtail (Setaria faberi), 140 g ai/ha, read-out: Visual Growth Reduction (%) 14 Days After Application, SETFA) | pest or weed control at 70 g/ha ([2]; SORVU: grain sorghum (Sorghum vulgare), 70 g ai/ha, read-out: Visual Growth Reduction (%) 14 Days After Application, SORVU) | pest or weed control at 140 g/ha ([2]; SORVU: grain sorghum (Sorghum vulgare), 140 g ai/ha, read-out: Visual Growth Reduction (%) 14 Days After Application, SORVU)
45 to 59%: pest or weed control at 70 g/ha ([2]; SETFA: giant foxtail (Setaria faberi), 70 g ai/ha, read-out: Visual Growth Reduction (%) 14 Days After Application, SETFA) | pest or weed control at 140 g/ha ([2]; TRZSS (wheat, Triticum aestivum), crop, 140 g ai/ha, read-out: Visual Growth Reduction (%) 14 Days After Application, TRZSS)

C=Cc1c(C(=O)O)nc(-c2ccc(I)cc2)c(F)c1N [Compound 17]
95 to 100%: pest or weed control at 70 g/ha ([1]; ABUTH: velvetleaf (Abutilon theophrasti), 70 g ai/ha, post-emergent, read-out: Visual Growth Reduction (%) 14 Days After Application ABUTH) | pest or weed control at 140 g/ha ([1]; ABUTH: velvetleaf (Abutilon theophrasti), 140 g ai/ha, post-emergent, read-out: Visual Growth Reduction (%) 14 Days After Application ABUTH) | pest or weed control at 70 g/ha ([1]; AMARE: redroot pigweed (Amaranthus retroflexus), 70 g ai/ha, post-emergent, read-out: Visual Growth Reduction (%) 14 Days After Application AMARE) | pest or weed control at 140 g/ha ([1]; AMARE: redroot pigweed (Amaranthus retroflexus), 140 g ai/ha, post-emergent, read-out: Visual Growth Reduction (%) 14 Days After Application AMARE) | pest or weed control at 70 g/ha ([1]; BRSNN: oilseed-rape, canola (Brassica napus), 70 g ai/ha, post-emergent, read-out: Visual Growth Reduction (%) 14 Days After Application BRSNN) | pest or weed control at 140 g/ha ([1]; BRSNN: oilseed-rape, canola (Brassica napus), 140 g ai/ha, post-emergent, read-out: Visual Growth Reduction (%) 14 Days After Application BRSNN) | pest or weed control at 140 g/ha ([1]; CHEAL: lambsquarters (Chenopodium album), 140 g ai/ha, post-emergent, read-out: Visual Growth Reduction (%) 14 Days After Application CHEAL) | pest or weed control at 70 g/ha ([1]; EPHHL: wild poinsettia (Euphorbia heterophylla), 70 g ai/ha, post-emergent, read-out: Visual Growth Reduction (%) 14 Days After Application EPHHL) | pest or weed control at 140 g/ha ([1]; EPHHL: wild poinsettia (Euphorbia heterophylla), 140 g ai/ha, post-emergent, read-out: Visual Growth Reduction (%) 14 Days After Application EPHHL) | pest or weed control at 140 g/ha ([1]; HELAN: sunflower (Helianthus annuus), 140 g ai/ha, post-emergent, read-out: Visual Growth Reduction (%) 14 Days After Application HELAN) | pest or weed control at 70 g/ha ([2]; CYPES: yellow nutsedge (Cyperus esculentus), application rate 70 g ai/ha, read-out: Visual Growth Reduction (%) 14 Days After Application, CYPES) | pest or weed control at 140 g/ha ([2]; CYPES: yellow nutsedge (Cyperus esculentus), application rate 140 g ai/ha, read-out: Visual Growth Reduction (%) 14 Days After Application, CYPES) | pest or weed control at 140 g/ha ([2]; SORVU: grain sorghum (Sorghum vulgare), application rate 140 g ai/ha, read-out: Visual Growth Reduction (%) 14 Days After Application, SORVU)
60 to 74%: pest or weed control at 70 g/ha ([2]; ORYSA: rice (Oryza sativa), application rate 70 g ai/ha, read-out: Visual Growth Reduction (%) 14 Days After Application, ORYSA) | pest or weed control at 70 g/ha ([2]; ZEAMX: maize, corn (Zea mays), application rate 70 g ai/ha, read-out: Visual Growth Reduction (%) 14 Days After Application, ZEAMX)
0 to 29%: pest or weed control at 70 g/ha ([1]; VIOTR: wild pansy (Viola tricolor), 70 g ai/ha, post-emergent, read-out: Visual Growth Reduction (%) 14 Days After Application VIOTR) | pest or weed control at 140 g/ha ([1]; VIOTR: wild pansy (Viola tricolor), 140 g ai/ha, post-emergent, read-out: Visual Growth Reduction (%) 14 Days After Application VIOTR) | pest or weed control at 70 g/ha ([2]; DIGSA: crabgrass (Digitaria sanguinalis), application rate 70 g ai/ha, read-out: Visual Growth Reduction (%) 14 Days After Application, DIGSA) | pest or weed control at 140 g/ha ([2]; DIGSA: crabgrass (Digitaria sanguinalis), application rate 140 g ai/ha, read-out: Visual Growth Reduction (%) 14 Days After Application, DIGSA) | pest or weed control at 70 g/ha ([2]; SETFA: giant foxtail (Setaria faberi), application rate 70 g ai/ha, read-out: Visual Growth Reduction (%) 14 Days After Application, SETFA)
75 to 84%: pest or weed control at 70 g/ha ([2]; ECHCG: barnyardgrass (Echinochloa crus-galli), application rate 70 g ai/ha, read-out: Visual Growth Reduction (%) 14 Days After Application, ECHCG) | pest or weed control at 140 g/ha ([2]; ZEAMX: maize, corn (Zea mays), application rate 140 g ai/ha, read-out: Visual Growth Reduction (%) 14 Days After Application, ZEAMX)
45 to 59%: pest or weed control at 140 g/ha ([2]; Triticum aestivum, TRZSS (wheat), application rate 140 g ai/ha, read-out: Visual Growth Reduction (%) 14 Days After Application, TRZSS) | pest or weed control at 140 g/ha ([2]; SETFA: giant foxtail (Setaria faberi), application rate 140 g ai/ha, read-out: Visual Growth Reduction (%) 14 Days After Application, SETFA)
30 to 44%: pest or weed control at 70 g/ha ([2]; Triticum aestivum, TRZSS (wheat), application rate 70 g ai/ha, read-out: Visual Growth Reduction (%) 14 Days After Application, TRZSS)
85 to 94%: pest or weed control at 70 g/ha ([1]; CHEAL: lambsquarters (Chenopodium album), 70 g ai/ha, post-emergent, read-out: Visual Growth Reduction (%) 14 Days After Application CHEAL) | pest or weed control at 70 g/ha ([1]; HELAN: sunflower (Helianthus annuus), 70 g ai/ha, post-emergent, read-out: Visual Growth Reduction (%) 14 Days After Application HELAN) | pest or weed control at 140 g/ha ([2]; ECHCG: barnyardgrass (Echinochloa crus-galli), application rate 140 g ai/ha, read-out: Visual Growth Reduction (%) 14 Days After Application, ECHCG) | pest or weed control at 140 g/ha ([2]; ORYSA: rice (Oryza sativa), application rate 140 g ai/ha, read-out: Visual Growth Reduction (%) 14 Days After Application, ORYSA) | pest or weed control at 70 g/ha ([2]; SORVU: grain sorghum (Sorghum vulgare), application rate 70 g ai/ha, read-out: Visual Growth Reduction (%) 14 Days After Application, SORVU)
